{"source": "patent US12596125B2", "about": "“Nano-rheological biomarkers for early and improved follow-up of pathologies associated to RBC deformability alteration” (ALCEDIAG, priority 2019, dated 2026)", "key": {"[1]": {"assay": "Sensitivity of rotor fluorescence to pH and ionic strength (NaCl)", "assay_type": "physicochemical", "conditions": "37 °C, rotor 15 μM; for dependency of fluorescence intensity on NaCl concentration (ionic strength): NaCl 0.1-200 mM, water-glycerol 50%-50%; for dependency of fluorescence intensity on pH: pH 3-8, citric acid/phosphate, water-glycerol 70%-30%", "excerpt": "(§1) The fluorescent response spectra of the rotors has been measured by varying four parameters • Viscosity, with water-glycerol solutions with increasing relative concentration (see FIGS. 2A-2D); • Electrostatic and ionic perturbations, with increasing NaCl concentration in a water-glycerol solution (50%-50%) (see FIG. 3A)); • pH, with buffered solutions Citric acid/Phosphate pH; 3<pH<8 in a water-glycerol solution (70%-30%) (see FIG. 3B); and • Molecular density and highly interacting (including hydrophobic) environment using a gradient BSA (bovine serum albumin) (see FIG. 4A-4D).\n(§2) The pH was assayed from 3 (corresponding to the most acidic zones) to 8. For viscosity, we used literature data agreeing on apparent values in various cellular media, ranging from 1.5 mPa·s in the cytoplasm up to 140 mPa·s in the vesicles. In our studies, the MR concentration was set to 15 μM under the expected toxicity onset [Haidekker (2010a)]. One key remark, as any fluorescent molecule, signal intensity is also a function of its concentration. It is therefore very important to control the concentration of molecular rotor or, if when impossible, to be able to measure the concentration regardless of the viscosity."}, "[2]": {"assay": "Excitation-emission matrix (spectral response) of molecular rotors", "assay_type": "physicochemical", "procedure": "Excitation wavelength in abscissa, emission in ordinates, in nanometer (nm)). The rotors are diluted in a water/glycerol solution at a concentration 15 μM.\nFIGS. 9a-9f: Excitation emission matrices of the molecular rotor DASPI, at temperature 25° C., at concentration 3.3 μM in (a) DMSO (η=2 mPa·s), (b) Ethylene glycol (η=13.5 mPa·s), (c) Glycerol (η=945 mPa·s) and (d,e) Hemoglobin in PBS (1000× dilution, different scale, η=1 mPa·s). The Fluorescence EEM of hemoglobin alone (f) was also measured to give evidence that there is no contribution of hemoglobin in the DASPI range of interest. […] In hemoglobin solutions however (d,e), the emission peak value is lower than in DMSO for similar viscosities because of the high absorbance of the solution.\nThe excitation-emission matrix of these 4 rotors, diluted in a glycerol/water solution (purely viscous fluid), have been measured using a SYNERGY H1 (Hybrid Multi-Mode reader, BioTek).\nIn a first step, fluorescence Excitation Emisson Matrices (EMMs) of DASPI were measured in selected solvents, at controlled temperature 25·C: DMSO, Ethylene Glycol, Glycerol and hemoglobin/PBS solutions (dilution 1000×). […] The Fluorescence EEM of hemoglobin alone (dilution 1000× in PBS) was also measured in the DASPI range of interest to give evidence that there is no contribution of hemoglobin in this range (f)."}, "[3]": {"assay": "Fluorescence intensity as a function of viscosity (Förster-Hoffmann equation)", "assay_type": "physicochemical", "procedure": "FIGS. 10a-10b: Emission peak intensity (fluorescence microscopy, excitation at 488 nm, emission 595±30 nm) of the molecular rotor DASPI at concentration 0.01 mM, 0.1 mM, 1 mM in (left) ethylene glycol/glycerol solutions and (right) aqueous glycerol solutions with increasing viscosity. The solutions temperature was fixed at T=X ° C. The fluorescence intensity increases with the solution viscosity according to the Förster-Hoffmann equation log φ=C+b log η, with solvent-dependent parameters b and C; Ethylene glycol/glycerol solutions: C=94,641,2206± and b=0.69±0.01 and aqueous glycerol solutions: C=74,344,1590± and b=0.70±0.01.\nas §1, §2\nThe second step was to assess the sensitivity of DASPI to the local viscosity of the surrounding medium. More generally, fluorescent MRs photophysical sensitivity depends on their interaction with the environment, characterized by viscosity, polarity and solubility. […] Here we have investigated the DASPI emission intensity (fluorescence microscopy, excitation at 488 nm, emission at 595±30 nm) in ethylene glycol/glycerol solutions (viscosity between 10-200 mPa·s) and aqueous solutions of glycerol (viscosity between 2-200 mPa·s). In each solution, the relative concentration of both solvents was varied to adjust the viscosity of the resulting mixture, at temperature T=X° C. The viscosity was measured in situ by microrheology measurements, just before fluorescence intensity measurements. […]"}, "red blood cells (RBCs) [4]": {"system": "red blood cells (RBCs)", "assay": "Fluorescence of rotor in healthy and glutaraldehyde-stiffened red blood cells (confocal / epi-fluorescence microscopy)", "assay_type": "cell-based", "conditions": "glutaraldehyde 0-2% per volume of cells; 0.4 mM rotor, 1 hour; excitation 488 nm, detection 565-625 nm", "procedure": "FIG. 6: Left: Suspension of healthy red blood cells and red blood cells stiffened with glutaraldehyde, in a PBS solution, using confocal microscopy (×40 objective, excitation at 488 nm, detection between 542-626 nm). The molecular rotor tDASMP was introduced into the solution according the protocol described in Example 2.\nAs a next step towards the rheological characterization of RBCs with MRs, we then imaged a suspension of healthy and artificially rigidified RBCs (by incubation during 10 min in a 1% (v/v) Glutaraldehyde solution in PBS) treated with tDASMP. […] Confocal microscopy allows to measure fluorescence profiles across RBCs.\nIn a second step, a quantification of the fluorescence response as a function of the degree of rigidification of RBCs can be performed. […]\nFor visualization, samples were placed between a glass slide and coverslip separated by a 250 μm spacer and initially incubated in a PBS solution supplemented with 1% BSA (Bovine Serum Albumin, Sigma-Aldrich) to prevent RBC adhesion. Observation was made with a Leica microscope in epi-fluorescence mode with excitation at 488 nm and detection at 565-625 nm. Images recorded with a sCMOS fast camera (OrcaFlash4.0 v2+, Hamamatsu Photonics France S.A.R.L., Massy, France) allowed to measure the mean fluorescence intensity of RBCs rescaled by the background fluorescence level."}, "hemoglobin solutions": {"target": "T1, hemoglobin solutions (Homo sapiens, UniProt P68871+P69905)", "T1 construct": "The RBC pellet was exposed to 3 freeze-thaw cycles (−80° C. to 37° C.) to lyse RBC membranes; from tissue; host or cells: red blood cells from blood samples (lysate, membranes extracted with CCl4)", "T1 sequence (P69905 2-142 limits assumed)": "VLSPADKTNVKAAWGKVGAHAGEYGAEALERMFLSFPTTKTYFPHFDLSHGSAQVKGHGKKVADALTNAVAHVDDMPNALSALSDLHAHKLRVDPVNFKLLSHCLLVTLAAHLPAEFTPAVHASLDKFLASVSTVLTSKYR", "T1 sequence (P68871 2-147 limits assumed)": "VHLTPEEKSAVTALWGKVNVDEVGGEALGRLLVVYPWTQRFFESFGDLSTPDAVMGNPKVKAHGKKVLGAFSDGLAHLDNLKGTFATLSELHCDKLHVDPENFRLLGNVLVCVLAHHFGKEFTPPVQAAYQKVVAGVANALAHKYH", "assay": "Emission intensity of rotor in hemoglobin solutions of increasing viscosity", "assay_type": "physicochemical", "conditions": "viscosity 3.4-9.2 mPa·s, temperature 17-34 °C", "procedure": "Red blood cells were washed three times in PBS buffer in order to prepare hemoglobin solutions from blood samples. After a final centrifugation at 1200 g for 10 min, all the supernatant was removed. The RBC pellet was exposed to 3 freeze-thaw cycles (−80° C. to 37° C.) to lyse RBC membranes. Membrane residues were then extracted by addition of CCl4 to the lysate (⅓ of the volume), strong agitation and ultra-centrifugation at 10000 g for 15 min. The hemoglobin concentration in the final solution was measured by colorimetry (MAK 115 Hemoglobin Assay Kit from Sigma-Aldrich).\nWe studied the emission intensity of tDASMP in hemoglobin solutions of increasing viscosity. The temperature of the sample was varied between 17° C. and 34° C."}, "red blood cells (RBCs) [5]": {"system": "red blood cells (RBCs)", "assay": "Penetration and localization of molecular rotor in red blood cells by confocal microscopy", "assay_type": "cell-based", "conditions": "for penetration of the rotor into RBCs: healthy and rigidified RBCs", "procedure": "FIG. 12: Bright field image and confocal z-stacks obtained using confocal microscopy (X40 objective, excitation at 488 nm, detection between 542-626 nm) for three healthy RBCs with different orientations in a 1 mM DASPI solution. The z position of the slices is indicated. […] The mean intensity was measured in the depicted color boxes and each data point corresponds to a confocal slice (0.5 μm distance). As a next step towards the rheological characterization of RBCs with MRs, we then imaged a suspension of healthy and artificially rigidified RBCs (by incubation during 10 min in a 1% (v/v) Glutaraldehyde solution in PBS) treated with […]. Healthy and rigidified RBC suspensions were mixed and the resulting suspension was observed using confocal microscopy with an excitation at 488 nm and detection between 546 nm and 626 nm. An image corresponding to the mid-cross section of the RBC after cells have sedimented on the bottom window of the observation chamber is shown in FIG. 6. […] Confocal microscopy allows to measure fluorescence profiles across RBCs. The localization of the DASPI molecular rotor in healthy red blood cells was studied by confocal microscopy. Confocal images were acquired during the slow sedimentation of the RBCs with different orientations in the observation microchannel. […] Beyond the membrane, in the cytosol, the signal from DASPI was homogeneous in the observation plane, regardless of the z-position and orientation of the cell. Confocal microscopy allows us to unambiguously separate the fluorescence response from the membrane and cytosol. In fact, as soon as the upper and lower membranes are out of the depth of field ( 600 nm), they no longer contribute to the field of vision. […] By scanning the different parts of the red blood cells, we measure that the DASPI fluorescence signal is present throughout the whole red blood cell, over a distance which corresponds approximately (given the depth of field) to the typical known sizes of the red blood cell: diameter 8 μm (b), thickness on the edge 3 μm (a), thickness in the biconcave zone 1 μm (a)."}}, "note": "Values joined by “and” are separate entries in the source; they are usually repeats but may differ in a detail not shown here. Identical values can stand only once.", "data": [{"compound": "N#C/C(=C\\c1cc2c3c(c1)CCCN3CCC2)C(=O)O", "note": "[CCVJ, Carboxycyanovinyl-Julolidine]", "values": [{"measurement": "dependency of fluorescence intensity on NaCl concentration (ionic strength)", "setting": "[1]", "result": "no significant dependency"}, {"measurement": "dependency of fluorescence intensity on pH", "setting": "[1]", "result": "no significant dependency"}]}, {"compound": "N#CC(C#N)=Cc1cc2c3c(c1)CCCN3CCC2", "note": "[DCVJ, Dicyanovinyl-Julolidine]", "values": [{"measurement": "dependency of fluorescence intensity on NaCl concentration (ionic strength)", "setting": "[1]", "result": "no significant dependency"}, {"measurement": "dependency of fluorescence intensity on pH", "setting": "[1]", "result": "no significant dependency"}]}, {"compound": "Cc1ccc2c(c1)sc(-c1ccc(N(C)C)cc1)[n+]2C.[Cl-]", "note": "[Tht, Thioflavine T]", "values": [{"measurement": "dependency of fluorescence intensity on NaCl concentration (ionic strength)", "setting": "[1]", "result": "no significant dependency"}, {"measurement": "dependency of fluorescence intensity on pH", "setting": "[1]", "result": "no significant dependency"}, {"measurement": "excitation/emission peaks", "setting": "[2]; water/glycerol solution, rotor 15 μM", "result": "around 380/440 and 430/490"}, {"measurement": "excitation/emission peak following the Förster-Hoffmann equation", "setting": "[3]; water-glycerol solutions, viscosity 1-200 mPa·s", "result": "430/490"}]}, {"compound": "CN(C)c1ccc(C=Cc2cc[n+](C)cc2)cc1.[I-]", "note": "[tDASMP, trans-4-[4-(Dimethylamino)styryl]-1-methylpyridinium iodide]", "values": [{"measurement": "mean fluorescence intensity of RBCs versus RBC rigidity", "setting": "red blood cells (RBCs) [4]", "result": "increasing function of RBC rigidity"}, {"measurement": "dependency of fluorescence intensity on NaCl concentration (ionic strength)", "setting": "[1]", "result": "no significant dependency"}, {"measurement": "dependency of fluorescence intensity on pH", "setting": "[1]", "result": "no significant dependency"}, {"measurement": "fluorescence excitation peak", "setting": "[2]; DMSO, ethylene glycol, glycerol, hemoglobin/PBS, 25 °C, 3.3 μM", "result": "around 480 nm"}, {"measurement": "interference of excitation-emission spectrum with hemoglobin fluorescence", "setting": "[2]; hemoglobin in PBS, 1000× dilution", "result": "does not interfere with the intrinsic hemoglobin fluorescent spectrum"}, {"measurement": "emission", "setting": "[2]; rotor of Examples 1-2", "result": "580-620 nm"}, {"measurement": "excitation peak", "setting": "[2]; rotor of Examples 1-2", "result": "around 490 nm"}, {"measurement": "Förster-Hoffmann exponent b", "setting": "[3]; aqueous glycerol solutions, excitation 488 nm, emission 595±30 nm", "result": "0.70±0.01"}, {"measurement": "Förster-Hoffmann exponent b", "setting": "[3]; both ethylene glycol/glycerol and glycerol/water solutions", "result": "around 0.7"}, {"measurement": "Förster-Hoffmann exponent b", "setting": "[3]; ethylene glycol/glycerol solutions, excitation 488 nm, emission 595±30 nm", "result": "0.69±0.01"}, {"measurement": "fluorescence emission intensity versus viscosity of hemoglobin solutions", "setting": "hemoglobin solutions", "result": "increase in fluorescence emission intensity"}, {"measurement": "distribution of the rotor inside RBCs", "setting": "red blood cells (RBCs) [5]", "result": "uniformly distributed throughout the volume of RBCs"}, {"measurement": "penetration of the rotor into RBCs", "setting": "red blood cells (RBCs) [5]", "result": "able to cross the membrane and penetrate within the RBCs"}, {"measurement": "penetration of the rotor into RBCs", "setting": "red blood cells (RBCs) [5]; listed as DASPI", "result": "spontaneously penetrates into red blood cells"}]}]}
